Data as given in PubChem BioAssay (NCI).
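Exposure lasted 48 hours, with cells grown in 96-well plates and compounds tested at five concentrations. The concentration for full growth arrest is given as TGI.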 Where a SMILES comes first, the peptide text is derived from it. [ ]: non-standard residue; d: D form. The star is where a group is joined. ξ: configuration not given here. NMeY = CN[C@@H](Cc1ccc(O)cc1)C(=O)O; Cbz = O=C(OCc1ccccc1)*; ξA = CC(N)C(=O)O

How the values were obtained:
Test in all cases: inhibition of tumour cell growth, NCI panel, 48 h
[1] = tested on: HOP-62 NSCLC
[2] = tested on: OVCAR-5 ovarian
[3] = tested on: CCRF-CEM leukemia
[4] = tested on: OVCAR-3 ovarian
[5] = tested on: IGROV1 ovarian
[6] = tested on: SNB-75 CNS
[7] = tested on: U251 CNS
[8] = tested on: A498 renal
[9] = tested on: CAKI-1 renal
[10] = tested on: HCT-116 colon
[11] = tested on: NCI-H226 lung
[12] = tested on: HOP-92 NSCLC
[13] = tested on: SK-OV-3 ovarian
[14] = tested on: HS 578T breast
[15] = tested on: UACC-62 melanoma
[16] = tested on: A549 NSCLC
[17] = tested on: SF-539 CNS
[18] = tested on: K-562 leukemia
[19] = tested on: MOLT-4 leukemia
[20] = tested on: SR leukemia
[21] = tested on: SN12C renal
[22] = tested on: OVCAR-4 ovarian
[23] = tested on: HL-60(TB) leukemia
[24] = tested on: MDA-MB-231 breast
[25] = tested on: NCI-H522 lung
[26] = tested on: NCI-H460 lung
[27] = tested on: HCT-15 colon
[28] = tested on: MDA-N
[29] = tested on: T-47D breast
[30] = tested on: UO-31 renal
[31] = tested on: KM12 colon
[32] = tested on: M14 melanoma
[33] = tested on: SF-268 CNS
[34] = tested on: HCC-2998 colon
[35] = tested on: TK-10 renal
[36] = tested on: SNB-19 CNS
[37] = tested on: RXF 393 renal
[38] = tested on: ACHN renal
[39] = tested on: COLO 205 colon
[40] = tested on: NCI-H23 lung
[41] = tested on: OVCAR-8 ovarian
[42] = tested on: PC-3 prostate
[43] = tested on: EKVX NSCLC
[44] = tested on: UACC-257 melanoma
[45] = tested on: MCF7 breast
[46] = tested on: RPMI-8226 leukemia
[47] = tested on: SK-MEL-2 melanoma
[48] = tested on: LOX IMVI melanoma
[49] = tested on: SK-MEL-5 melanoma
[50] = tested on: BT-549 breast
[51] = tested on: MALME-3M melanoma
[52] = tested on: SK-MEL-28 melanoma
[53] = tested on: NCI/ADR-RES ovarian
[54] = tested on: HT29 colon
[55] = tested on: DU-145 prostate
[56] = tested on: MDA-MB-435
[57] = tested on: 786-0 renal
[58] = tested on: SF-295 CNS
[59] = tested on: SW-620 colon

CC1=NN(c2ccc(C)cc2)C2(C1)SCC(=O)N2c1nc2ccccc2s1 (stereo not drawn)
TGI [1]: > 100 µM | TGI [2]: > 100 µM | TGI [3]: 28.4 µM | TGI [4]: 92.6 µM | TGI [5]: > 100 µM | TGI [6]: 64.7 µM | TGI [7]: 65.5 µM | TGI [8]: 70.6 µM | TGI [9]: > 100 µM | TGI [10]: 51.1 µM | TGI [11]: 47 µM | TGI [12]: > 100 µM | TGI [13]: > 100 µM | TGI [14]: > 100 µM | TGI [15]: 45.6 µM | TGI [16]: > 100 µM | TGI [17]: 46.8 µM | TGI [18]: > 100 µM | TGI [19]: 46.1 µM | TGI [20]: 28.1 µM | TGI [21]: 52.2 µM | TGI [22]: > 100 µM | TGI [23]: 36.5 µM | TGI [24]: 41.4 µM | TGI [25]: 52.6 µM | TGI [26]: 56.5 µM | TGI [27]: > 100 µM | TGI [28]: 70.2 µM | TGI [29]: 67.1 µM | TGI [30]: > 100 µM | TGI [31]: > 100 µM | TGI [32]: > 100 µM | TGI [33]: > 100 µM | TGI [34]: 48.3 µM | TGI [35]: 74.4 µM | TGI [36]: > 100 µM | TGI [37]: 54.8 µM | TGI [38]: > 100 µM | TGI [39]: 57.9 µM | TGI [40]: 77.5 µM | TGI [41]: > 100 µM | TGI [42]: 70.1 µM | TGI [43]: 99.1 µM | TGI [44]: 55.1 µM | TGI [45]: 48.8 µM | TGI [46]: 50.1 µM | TGI [47]: 61.1 µM | TGI [48]: 76.2 µM | TGI [49]: 24.2 µM | TGI [50]: > 100 µM | TGI [51]: > 100 µM | TGI [52]: > 100 µM | TGI [53]: 76.2 µM | TGI [54]: > 100 µM | TGI [55]: > 100 µM | TGI [56]: > 100 µM | TGI [57]: 71 µM | TGI [58]: > 100 µM | TGI [59]: > 100 µM

COc1ccc(C[C@@H](C(=O)NCC(N)=O)N(C)C(=O)[C@@H]2CCCN2C(=O)[C@H](CC(C)C)NC(=O)C(C)NC(=O)OCc2ccccc2)cc1 (stereo partly drawn) (Cbz-[ξA]LP[NMeY](Me)G-NH2)
TGI [1]: > 100 µM | TGI [2]: > 100 µM | TGI [3]: > 100 µM | TGI [4]: > 100 µM | TGI [5]: > 100 µM | TGI [6]: > 100 µM | TGI [7]: > 100 µM | TGI [8]: > 100 µM | TGI [9]: > 100 µM | TGI [10]: > 100 µM | TGI [11]: > 100 µM | TGI [12]: > 100 µM | TGI [13]: > 100 µM | TGI [14]: > 100 µM | TGI [15]: > 100 µM | TGI [16]: > 100 µM | TGI [17]: > 100 µM | TGI [18]: > 100 µM | TGI [19]: > 100 µM | TGI [20]: > 100 µM | TGI [21]: > 100 µM | TGI [22]: > 100 µM | TGI [23]: > 100 µM | TGI [24]: > 100 µM | TGI [25]: > 100 µM | TGI [26]: > 100 µM | TGI [27]: > 100 µM | TGI [28]: > 100 µM | TGI [29]: > 100 µM | TGI [30]: > 100 µM | TGI [31]: > 100 µM | TGI [32]: > 100 µM | TGI [33]: > 100 µM | TGI [34]: > 100 µM | TGI [35]: > 100 µM | TGI [36]: > 100 µM | TGI [37]: > 100 µM | TGI [38]: > 100 µM | TGI [39]: > 100 µM | TGI [40]: > 100 µM | TGI [41]: > 100 µM | TGI [42]: > 100 µM | TGI [43]: > 100 µM | TGI [44]: > 100 µM | TGI [45]: > 100 µM | TGI [46]: > 100 µM | TGI [47]: > 100 µM | TGI [48]: > 100 µM | TGI [49]: > 100 µM | TGI [50]: > 100 µM | TGI [51]: > 100 µM | TGI [52]: > 100 µM | TGI [53]: > 100 µM | TGI [54]: > 100 µM | TGI [55]: > 100 µM | TGI [56]: > 100 µM | TGI [57]: > 100 µM | TGI [58]: > 100 µM | TGI [59]: > 100 µM

Cc1ccc(Nc2nc(=O)[nH]c(=O)[nH]2)cc1N
TGI [1]: > 100 µM | TGI [2]: > 100 µM | TGI [3]: > 100 µM | TGI [4]: > 100 µM | TGI [5]: > 100 µM | TGI [6]: > 100 µM | TGI [7]: > 100 µM | TGI [8]: > 100 µM | TGI [9]: > 100 µM | TGI [10]: > 100 µM | TGI [11]: > 100 µM | TGI [12]: > 100 µM | TGI [13]: > 100 µM | TGI [14]: > 100 µM | TGI [15]: > 100 µM | TGI [16]: > 100 µM | TGI [17]: > 100 µM | TGI [20]: > 100 µM | TGI [21]: > 100 µM | TGI [22]: > 100 µM | TGI [23]: > 100 µM | TGI [24]: > 100 µM | TGI [25]: > 100 µM | TGI [26]: > 100 µM | TGI [27]: > 100 µM | TGI [28]: > 100 µM | TGI [29]: > 100 µM | TGI [31]: > 100 µM | TGI [32]: > 100 µM | TGI [33]: > 100 µM | TGI [34]: > 100 µM | TGI [35]: > 100 µM | TGI [36]: > 100 µM | TGI [38]: > 100 µM | TGI [39]: > 100 µM | TGI [40]: > 100 µM | TGI [41]: > 100 µM | TGI [42]: > 100 µM | TGI [43]: > 100 µM | TGI [44]: > 100 µM | TGI [45]: > 100 µM | TGI [46]: > 100 µM | TGI [47]: > 100 µM | TGI [48]: > 100 µM | TGI [49]: > 100 µM | TGI [50]: > 100 µM | TGI [51]: > 100 µM | TGI [52]: > 100 µM | TGI [53]: > 100 µM | TGI [54]: > 100 µM | TGI [55]: > 100 µM | TGI [56]: > 100 µM | TGI [57]: > 100 µM | TGI [58]: > 100 µM | TGI [59]: > 100 µM
